From patent US10947242B2, “[1,2,4]triazolo[1,5and#8208;A]pyrimidine compounds as PDE2 inhibitors” (Janssen Pharmaceutica NV, priority 2016, dated 2021)
Where two headings read alike, the source gives them in different places.

How the values were obtained:
[1] = target: T1, Human recombinant PDE2A (hPDE2A) (Homo sapiens, UniProt O00408); assay: In vitro assay PDE2A (SPA, 3H-cGMP hydrolysis); assay type: biochemical; conditions: for Emax: read-out: hPDE2A Emax
T1 construct: His tag (inferred from metal chelate purification); made in house; host or cells: Sf9 insect cells (baculovirus)
T1 sequence (O00408 whole entry): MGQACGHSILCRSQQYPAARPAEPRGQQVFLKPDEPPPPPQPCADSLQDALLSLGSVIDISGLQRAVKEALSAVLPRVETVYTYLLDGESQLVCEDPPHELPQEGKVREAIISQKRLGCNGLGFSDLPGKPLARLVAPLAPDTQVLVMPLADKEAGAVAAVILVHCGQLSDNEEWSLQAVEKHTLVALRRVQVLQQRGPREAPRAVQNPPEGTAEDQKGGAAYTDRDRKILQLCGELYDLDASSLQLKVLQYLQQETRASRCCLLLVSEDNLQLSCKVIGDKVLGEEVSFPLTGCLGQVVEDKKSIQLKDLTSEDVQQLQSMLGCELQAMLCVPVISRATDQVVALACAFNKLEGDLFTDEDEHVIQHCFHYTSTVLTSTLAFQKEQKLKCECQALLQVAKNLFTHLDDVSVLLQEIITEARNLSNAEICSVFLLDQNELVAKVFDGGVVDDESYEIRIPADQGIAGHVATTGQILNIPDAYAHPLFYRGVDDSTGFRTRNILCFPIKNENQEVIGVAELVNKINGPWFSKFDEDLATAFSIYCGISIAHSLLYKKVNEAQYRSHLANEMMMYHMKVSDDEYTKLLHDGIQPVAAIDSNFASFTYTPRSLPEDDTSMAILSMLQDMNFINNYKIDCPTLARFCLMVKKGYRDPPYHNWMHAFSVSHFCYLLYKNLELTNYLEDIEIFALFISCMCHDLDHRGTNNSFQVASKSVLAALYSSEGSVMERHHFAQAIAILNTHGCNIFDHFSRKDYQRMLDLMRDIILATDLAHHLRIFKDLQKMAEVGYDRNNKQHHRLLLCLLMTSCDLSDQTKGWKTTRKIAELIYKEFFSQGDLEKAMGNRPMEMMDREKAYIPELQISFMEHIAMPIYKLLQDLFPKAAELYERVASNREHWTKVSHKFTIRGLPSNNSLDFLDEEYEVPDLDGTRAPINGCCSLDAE

[2] = target: T2, Human recombinant PDE3A (hPDE3A) (Homo sapiens, UniProt Q14432); assay: In vitro assay PDE3A (SPA, 3H-cAMP hydrolysis); assay type: biochemical; conditions: for IC50: hPDE3B pIC50; for Emax: read-out: hPDE3B Emax, read-out: Emax;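 as to Emax: the method names PDE3A and the table heading PDE3B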
T2 construct: purchased Scottish Biomedical; host or cells: Sf9 insect cells
T2 sequence (Q14432 whole entry): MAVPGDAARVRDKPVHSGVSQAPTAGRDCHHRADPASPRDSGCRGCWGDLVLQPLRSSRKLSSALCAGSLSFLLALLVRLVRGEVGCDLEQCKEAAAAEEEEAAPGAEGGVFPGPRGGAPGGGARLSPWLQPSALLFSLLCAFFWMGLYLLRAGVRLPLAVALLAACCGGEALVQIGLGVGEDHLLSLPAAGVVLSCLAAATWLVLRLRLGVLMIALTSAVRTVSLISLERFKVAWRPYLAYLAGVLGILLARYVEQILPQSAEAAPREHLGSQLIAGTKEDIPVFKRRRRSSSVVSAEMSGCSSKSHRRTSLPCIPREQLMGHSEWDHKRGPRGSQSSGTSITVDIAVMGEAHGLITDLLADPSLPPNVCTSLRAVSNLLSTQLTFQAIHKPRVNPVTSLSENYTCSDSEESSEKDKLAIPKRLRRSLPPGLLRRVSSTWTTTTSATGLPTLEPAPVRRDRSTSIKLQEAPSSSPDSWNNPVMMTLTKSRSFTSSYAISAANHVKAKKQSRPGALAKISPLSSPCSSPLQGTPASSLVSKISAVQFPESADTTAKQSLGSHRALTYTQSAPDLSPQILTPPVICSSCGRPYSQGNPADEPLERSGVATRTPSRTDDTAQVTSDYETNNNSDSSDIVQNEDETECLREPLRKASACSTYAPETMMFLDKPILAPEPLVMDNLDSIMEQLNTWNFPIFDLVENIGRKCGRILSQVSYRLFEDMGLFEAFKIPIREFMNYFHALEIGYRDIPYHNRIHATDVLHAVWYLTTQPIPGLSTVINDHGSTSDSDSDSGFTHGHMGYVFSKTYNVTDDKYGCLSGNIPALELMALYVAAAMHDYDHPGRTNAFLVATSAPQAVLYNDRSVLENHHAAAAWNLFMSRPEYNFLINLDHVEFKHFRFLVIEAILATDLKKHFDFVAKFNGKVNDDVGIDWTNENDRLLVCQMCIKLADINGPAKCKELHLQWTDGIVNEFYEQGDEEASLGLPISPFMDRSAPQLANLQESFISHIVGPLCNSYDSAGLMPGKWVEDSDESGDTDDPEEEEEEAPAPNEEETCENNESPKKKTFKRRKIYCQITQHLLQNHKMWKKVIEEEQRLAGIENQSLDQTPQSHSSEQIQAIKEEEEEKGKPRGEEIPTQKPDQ
Summary of the method: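 Human PDE3A, cloned from brain, as partially purified Sf9 lysate. Substrate 0.4 μM cAMP plus [3H]-cAMP (2.4 μCi/ml final) in 50 mM Tris pH 7.8, 8.3 mM MgCl2, 1.7 mM EGTA, 60 min at room temperature, 1% DMSO final. Hydrolysis read by SPA scintillation counting against no-enzyme blanks and DMSO controls.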

[3] = target: T3, Human recombinant PDE10A (hPDE10A) (Homo sapiens, UniProt Q9Y233); assay: In vitro assay PDE10A, human clone (SPA, 3H-cAMP hydrolysis); assay type: biochemical
T3 construct: His tag (inferred from metal chelate purification); made in house; host or cells: Sf9 insect cells (baculovirus)
T3 sequence (Q9Y233 267-1055): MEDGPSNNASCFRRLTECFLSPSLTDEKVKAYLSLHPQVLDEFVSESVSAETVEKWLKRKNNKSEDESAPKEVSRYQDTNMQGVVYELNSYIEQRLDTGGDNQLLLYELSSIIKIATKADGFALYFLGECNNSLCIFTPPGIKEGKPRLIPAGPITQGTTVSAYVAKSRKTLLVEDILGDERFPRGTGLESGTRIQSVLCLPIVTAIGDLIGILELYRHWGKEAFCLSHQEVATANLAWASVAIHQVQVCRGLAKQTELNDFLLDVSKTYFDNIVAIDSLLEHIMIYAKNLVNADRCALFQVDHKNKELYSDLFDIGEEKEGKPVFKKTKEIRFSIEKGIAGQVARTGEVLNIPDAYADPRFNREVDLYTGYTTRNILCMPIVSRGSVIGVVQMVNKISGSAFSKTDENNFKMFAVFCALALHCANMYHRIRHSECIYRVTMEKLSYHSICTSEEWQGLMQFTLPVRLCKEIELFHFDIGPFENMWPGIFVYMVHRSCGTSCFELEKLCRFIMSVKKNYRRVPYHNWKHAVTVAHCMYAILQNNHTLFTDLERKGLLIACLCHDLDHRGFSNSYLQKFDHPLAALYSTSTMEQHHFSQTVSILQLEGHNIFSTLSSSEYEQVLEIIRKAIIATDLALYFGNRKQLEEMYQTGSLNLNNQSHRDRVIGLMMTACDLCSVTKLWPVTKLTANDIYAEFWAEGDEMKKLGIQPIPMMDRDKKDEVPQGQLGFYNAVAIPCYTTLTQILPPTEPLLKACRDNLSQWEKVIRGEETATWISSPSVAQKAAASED
Summary of the method: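 Human recombinant PDE10A was expressed in Sf9 cells via baculovirus and incubated with compound in 50 mM Tris pH 7.8, 8.3 mM MgCl2, 1.7 mM EGTA. Substrate was 60 nM cAMP plus 0.008 μCi 3H-cAMP for 60 min at room temperature, read by SPA scintillation counting. Controls used 1% DMSO, and blanks omitted enzyme.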

PDE2A = target: T4, PDE2A (Rattus norvegicus, UniProt Q01062); assay: PDE2 occupancy by test compounds, ex-vivo autoradiography with [3H]B-17a; assay type: in vivo, Male Wistar rats; conditions: 10 mg/kg, percentage receptor occupancy, ex-vivo autoradiography, striatum
T4 construct: Twenty μm-thick striatal sections were cut; from tissue; host or cells: rat brain, striatal sections
T4 sequence (Q01062 1-928): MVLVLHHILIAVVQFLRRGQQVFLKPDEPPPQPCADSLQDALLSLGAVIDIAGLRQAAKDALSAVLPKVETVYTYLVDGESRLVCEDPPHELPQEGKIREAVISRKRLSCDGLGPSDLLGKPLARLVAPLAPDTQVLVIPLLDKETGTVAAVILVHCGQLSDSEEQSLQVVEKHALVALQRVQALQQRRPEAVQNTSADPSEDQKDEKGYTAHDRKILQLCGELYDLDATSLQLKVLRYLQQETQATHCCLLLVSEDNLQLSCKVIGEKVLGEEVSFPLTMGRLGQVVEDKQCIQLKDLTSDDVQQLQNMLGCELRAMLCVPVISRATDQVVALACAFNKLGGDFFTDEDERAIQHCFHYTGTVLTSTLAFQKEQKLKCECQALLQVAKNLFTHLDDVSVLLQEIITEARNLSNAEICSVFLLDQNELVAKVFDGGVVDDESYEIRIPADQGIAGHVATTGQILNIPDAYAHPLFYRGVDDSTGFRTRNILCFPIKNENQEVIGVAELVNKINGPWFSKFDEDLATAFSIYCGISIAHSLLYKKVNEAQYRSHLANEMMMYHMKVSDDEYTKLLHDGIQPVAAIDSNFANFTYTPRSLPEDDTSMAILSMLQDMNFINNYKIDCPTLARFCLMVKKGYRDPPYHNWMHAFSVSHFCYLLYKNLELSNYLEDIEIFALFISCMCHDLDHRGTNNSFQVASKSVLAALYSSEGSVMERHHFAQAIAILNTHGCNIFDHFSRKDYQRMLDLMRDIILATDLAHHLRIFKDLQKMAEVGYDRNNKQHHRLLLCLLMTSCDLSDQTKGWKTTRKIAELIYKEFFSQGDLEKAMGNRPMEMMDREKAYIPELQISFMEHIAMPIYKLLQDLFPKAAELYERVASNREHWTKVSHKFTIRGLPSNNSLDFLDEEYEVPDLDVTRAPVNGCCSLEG

[4] = human recombinant PDE2A, 10 μM cGMP substrate, read-out: hPDE2A pIC50 (converted)
[5] = read-out: hPDE2A pIC50 (converted)
[6] = human clone (h), default, read-out: hPDE10A2 Emax
[7] = human clone (h), default, read-out: hPDE10A2 pIC50 (converted)
[8] = hPDE2A pIC50, human recombinant PDE2A, 10 μM cGMP substrate
[9] = human clone by default (no (r) mark), read-out: hPDE10A2 or rPDE10A2 Emax
[10] = human clone by default (no (r) mark), read-out: hPDE10A2 or rPDE10A2 pIC50 (converted)

SMILES	IC50 [1, 4]	Emax ([1]; human recombinant PDE2A)	Emax [1]	IC50 [1, 5]	IC50 ([2]; read-out: pIC50 (converted))	Emax [2]	Emax [3, 6]	IC50 [3, 7]	receptor occupancy at 10 mg/kg (PDE2A; po, route PO (oral))	IC50 ([1]; hPDE2A pIC50)	IC50 [1, 8]	receptor occupancy at 10 mg/kg (PDE2A; sc, route SC (subcutaneous))	Emax [3, 9]	IC50 [3, 10]	IC50 [2]	IC50 ([3]; hPDE10A2 or rPDE10A2 pIC50, human clone by default (no (r) mark))
CCCC[C@H]1CCN(C(=O)c2cc(C)nc(C)c2)C[C@@H]1c1cc(C(F)F)nc2ncnn12 (single isomer, unassigned) [Compound 46]	15.1 nM	100%	100%	15.1 nM	> 10000 nM	5%	86%	2240 nM	-9%	–	–	–	–	–	–	–
Cc1cc(C(=O)N2CC[C@@H](C)[C@H](c3cc(C)nc4ncnn34)C2)cc(C)n1 [Compound 1a]	–	–	100%	–	2090 nM	65%	98%	12.9 nM	37%	0.794 nM	0.794 nM	–	–	–	–	–
Cc1cc([C@@H]2CN(C(=O)c3ccc4ncsc4c3)CC[C@H]2C)n2ncnc2n1 [Compound 2a]	–	–	101%	–	776 nM	98%	101%	7.24 nM	–	0.589 nM	0.589 nM	70%	–	–	–	–
Cc1cc([C@H]2CN(C(=O)c3ccc4ncsc4c3)CC[C@@H]2C)n2ncnc2n1 [Compound 2b]	–	–	100%	–	> 10000 nM	31%	95%	269 nM	–	19.1 nM	19.1 nM	3%	–	–	–	–
Cc1cc([C@@H]2CN(C(=O)c3cc(C)c(C)cn3)CC[C@H]2C)n2ncnc2n1 [Compound 3a]	–	–	97%	–	3470 nM	77%	93%	269 nM	0%	5.75 nM	5.75 nM	–	–	–	–	–
Cc1cc(C(=O)N2CC[C@@H](C)[C@H](c3cc(C)nc4ncnn34)C2)cc(C(F)(F)F)n1 [Compound 4]	–	–	100%	–	5750 nM	70%	99%	24 nM	9%	1.45 nM	1.45 nM	–	–	–	–	–
Cc1cc([C@@H]2CN(C(=O)c3ccc4occc4c3)CC[C@H]2C)n2ncnc2n1 [Compound 6]	–	–	99%	–	676 nM	97%	100%	17.8 nM	67%	1.62 nM	1.62 nM	–	–	–	–	–
Cc1cc([C@@H]2CN(C(=O)c3cc4cccnc4nc3C(F)(F)F)CC[C@H]2C)n2ncnc2n1 [Compound 13]	10.5 nM	100%	100%	10.5 nM	> 10000 nM	38%	95%	347 nM	2%	–	–	–	–	–	–	–
CN1CCOc2cc(C(=O)N3[C@H]4CC[C@H](c5cc(C(F)F)nc6ncnn56)[C@@H]3CC4)ccc21 [Compound 378]	–	–	99%	1.7 nM	759 nM	96%	–	–	–	–	–	–	97%	407 nM	–	–
Cn1cnc2cc(C(=O)N3[C@H]4CC[C@H](c5cc(C(F)F)nc6ncnn56)[C@@H]3CC4)ccc21 [Compound 379]	–	–	102%	11.2 nM	5250 nM	67%	–	–	–	–	–	–	87%	1620 nM	–	–
Cn1ncc2cc(C(=O)N3[C@H]4CC[C@H](c5cc(C(F)F)nc6ncnn56)[C@@H]3CC4)ccc21 [Compound 380]	–	–	101%	5.5 nM	3980 nM	72%	–	–	–	–	–	–	96%	363 nM	–	–
O=C(c1ccc2nccnc2c1)N1[C@H]2CC[C@H](c3cc(C(F)F)nc4ncnn34)[C@@H]1CC2 [Compound 381]	–	–	99%	7.59 nM	–	48%	–	–	–	–	–	–	88%	1320 nM	–	–
Cn1ccc2cc(C(=O)N3[C@H]4CC[C@H](c5cc(C(F)F)nc6ncnn56)[C@@H]3CC4)ncc21 [Compound 382]	–	–	99%	10.2 nM	> 10000 nM	37%	–	–	–	–	–	–	75%	3980 nM	–	–
Cc1cc([C@@H]2CN(C(=O)c3cc(C4CC4)ncc3C3CC3)CC[C@H]2C)n2ncnc2n1 [Compound 390]	–	–	98%	2.09 nM	2570 nM	84%	–	–	–	–	–	–	99%	61.7 nM	–	–
Cc1nc(C(F)(F)F)cc(C(=O)N2CC[C@@H](C)[C@H](c3cc(C(F)F)nc4ncnn34)C2)c1F [Compound 394]	–	–	99%	9.33 nM	> 10000 nM	27%	–	–	–	–	–	–	76%	2240 nM	–	–
Cc1cc(C(=O)N2CC[C@@H](C)[C@H](c3cc(C(F)F)nc4ncnn34)C2)c(F)c(C(F)(F)F)n1 [Compound 396]	–	–	98%	15.1 nM	> 10000 nM	56%	–	–	–	–	–	–	84%	1480 nM	–	–
Cc1cc(C(=O)N2[C@H]3CC[C@H](c4cc(C(F)F)nc5ncnn45)[C@@H]2CC3)c(F)c(C)n1 [Compound 400]	–	–	99%	–	–	16%	–	–	–	22.4 nM	–	–	41%	–	> 10000 nM	> 10000 nM
Cc1cc(C(=O)N2CC[C@@H](C)[C@H](c3cc(C(F)F)nc4ncnn34)C2)cc(C)[n+]1[O-] [Compound 402]	–	–	100%	–	> 10000 nM	28%	–	–	–	26.3 nM	–	–	87%	1480 nM	–	–
